Test results: PMC3433420 (PLoS ONE, 2012)
Residues, ends and D or L forms follow the SMILES beside them.

Columns and labels:
Test in all cases: In-house protein microarrays (with or without 5 mM DTT), protein named per line
Format in all cases: binding
[1] = target: T1, SH2 and PTB domains (Homo sapiens, UniProt P29353); conditions: protein SHC1, array fabrication # 39329
T1 construct: thioredoxin; made in house; host or cells: BL21(DE3)pLysS E. coli
T1 sequence (P29353 1-583): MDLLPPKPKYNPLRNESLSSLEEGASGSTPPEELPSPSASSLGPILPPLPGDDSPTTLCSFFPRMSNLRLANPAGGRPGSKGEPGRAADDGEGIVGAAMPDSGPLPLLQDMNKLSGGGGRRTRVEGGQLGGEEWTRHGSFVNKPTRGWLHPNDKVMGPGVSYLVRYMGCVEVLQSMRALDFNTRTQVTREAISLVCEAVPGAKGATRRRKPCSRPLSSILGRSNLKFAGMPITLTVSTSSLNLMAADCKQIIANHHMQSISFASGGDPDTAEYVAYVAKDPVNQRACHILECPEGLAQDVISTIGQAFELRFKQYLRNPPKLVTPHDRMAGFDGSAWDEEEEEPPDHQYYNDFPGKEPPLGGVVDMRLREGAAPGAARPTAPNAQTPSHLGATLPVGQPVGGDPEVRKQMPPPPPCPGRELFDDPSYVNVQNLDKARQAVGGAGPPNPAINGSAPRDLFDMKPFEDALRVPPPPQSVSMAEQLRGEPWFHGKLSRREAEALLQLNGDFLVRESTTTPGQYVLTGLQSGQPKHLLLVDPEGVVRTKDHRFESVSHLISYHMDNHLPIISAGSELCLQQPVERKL
Summary of the method: (§1)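 Recombinant domains (~40 µM) spotted in duplicate on aldehyde slides, quenched 1 h at room temperature in HEPES/KCl/Tween-20 buffer pH 7.8 with 5 mM DTT and 1% BSA, then probed with rhodamine-labeled peptide. Thioredoxin-subtracted mean fluorescence fitted for KD.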

[2] = target: T2, SH2 and PTB domains (Homo sapiens, UniProt P00519); conditions: protein ABL1
T2 construct: thioredoxin; made in house; host or cells: BL21(DE3)pLysS E. coli
T2 sequence (P00519 whole entry, the tested form may be a part): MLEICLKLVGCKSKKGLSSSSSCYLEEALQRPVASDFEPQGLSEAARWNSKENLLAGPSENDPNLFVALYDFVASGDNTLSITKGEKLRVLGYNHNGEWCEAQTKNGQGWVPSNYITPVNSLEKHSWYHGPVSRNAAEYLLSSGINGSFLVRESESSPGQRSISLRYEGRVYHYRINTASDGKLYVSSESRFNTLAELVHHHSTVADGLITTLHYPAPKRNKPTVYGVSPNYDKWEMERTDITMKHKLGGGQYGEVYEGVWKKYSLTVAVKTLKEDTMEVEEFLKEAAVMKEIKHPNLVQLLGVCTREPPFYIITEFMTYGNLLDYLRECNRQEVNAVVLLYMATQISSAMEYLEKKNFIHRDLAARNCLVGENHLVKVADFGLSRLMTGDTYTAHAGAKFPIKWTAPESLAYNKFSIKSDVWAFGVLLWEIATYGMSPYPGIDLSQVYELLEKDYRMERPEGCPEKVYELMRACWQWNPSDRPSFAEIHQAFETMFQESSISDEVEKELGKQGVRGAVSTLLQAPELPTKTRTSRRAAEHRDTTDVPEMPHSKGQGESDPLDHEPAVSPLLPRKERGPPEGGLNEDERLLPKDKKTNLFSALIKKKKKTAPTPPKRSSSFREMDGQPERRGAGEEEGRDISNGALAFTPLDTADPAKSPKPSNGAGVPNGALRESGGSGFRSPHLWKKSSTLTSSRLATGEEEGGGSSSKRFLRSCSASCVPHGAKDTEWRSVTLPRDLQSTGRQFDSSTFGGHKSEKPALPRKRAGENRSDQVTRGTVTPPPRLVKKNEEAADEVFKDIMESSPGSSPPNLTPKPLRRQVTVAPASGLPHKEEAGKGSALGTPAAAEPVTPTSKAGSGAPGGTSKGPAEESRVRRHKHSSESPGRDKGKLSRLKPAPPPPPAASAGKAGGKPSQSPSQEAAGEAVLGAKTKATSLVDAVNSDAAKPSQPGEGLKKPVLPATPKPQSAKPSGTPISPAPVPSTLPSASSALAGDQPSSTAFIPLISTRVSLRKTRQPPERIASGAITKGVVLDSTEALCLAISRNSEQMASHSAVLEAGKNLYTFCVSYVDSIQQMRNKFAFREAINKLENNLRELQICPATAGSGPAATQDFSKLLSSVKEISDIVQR
Summary of the method: as §1

[3] = target: T3, SH2 and PTB domains (Homo sapiens, UniProt P08631); conditions: protein HCK
T3 construct: thioredoxin; made in house; host or cells: BL21(DE3)pLysS E. coli
T3 sequence (P08631 whole entry, the tested form may be a part): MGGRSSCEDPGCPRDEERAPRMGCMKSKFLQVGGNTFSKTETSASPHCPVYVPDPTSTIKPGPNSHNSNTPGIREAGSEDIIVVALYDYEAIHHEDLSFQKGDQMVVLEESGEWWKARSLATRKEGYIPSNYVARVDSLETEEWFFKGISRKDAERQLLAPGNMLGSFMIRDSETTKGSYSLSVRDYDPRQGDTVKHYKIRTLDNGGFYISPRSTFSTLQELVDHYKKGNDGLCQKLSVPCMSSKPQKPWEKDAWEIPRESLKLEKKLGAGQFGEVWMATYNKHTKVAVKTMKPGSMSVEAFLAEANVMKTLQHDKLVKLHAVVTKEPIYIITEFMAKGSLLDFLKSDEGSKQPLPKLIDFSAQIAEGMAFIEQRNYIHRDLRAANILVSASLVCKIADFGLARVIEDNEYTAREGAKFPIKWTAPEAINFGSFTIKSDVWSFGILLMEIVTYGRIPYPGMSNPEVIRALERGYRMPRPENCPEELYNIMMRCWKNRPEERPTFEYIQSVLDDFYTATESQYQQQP
Summary of the method: as §1

[4] = target: T4, SH2 and PTB domains (Homo sapiens, UniProt Q08881); conditions: protein ITK
T4 construct: thioredoxin; made in house; host or cells: BL21(DE3)pLysS E. coli
T4 sequence (Q08881 1-620): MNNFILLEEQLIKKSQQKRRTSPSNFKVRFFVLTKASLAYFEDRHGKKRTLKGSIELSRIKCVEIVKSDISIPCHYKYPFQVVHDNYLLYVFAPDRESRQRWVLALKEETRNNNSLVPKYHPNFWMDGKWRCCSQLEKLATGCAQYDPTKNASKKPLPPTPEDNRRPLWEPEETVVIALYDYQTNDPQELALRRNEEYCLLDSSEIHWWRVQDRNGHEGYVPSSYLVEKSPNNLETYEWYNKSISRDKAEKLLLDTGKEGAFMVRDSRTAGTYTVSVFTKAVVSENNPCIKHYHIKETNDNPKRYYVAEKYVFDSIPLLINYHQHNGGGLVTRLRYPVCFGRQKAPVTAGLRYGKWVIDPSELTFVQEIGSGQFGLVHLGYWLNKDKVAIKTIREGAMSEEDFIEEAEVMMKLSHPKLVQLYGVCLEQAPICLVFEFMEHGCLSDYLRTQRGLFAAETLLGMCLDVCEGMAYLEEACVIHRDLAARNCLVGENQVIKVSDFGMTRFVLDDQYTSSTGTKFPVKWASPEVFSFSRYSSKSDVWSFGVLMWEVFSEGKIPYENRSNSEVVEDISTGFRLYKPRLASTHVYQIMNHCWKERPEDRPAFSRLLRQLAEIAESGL
Summary of the method: as §1

[5] = target: T5, SH2 and PTB domains (Homo sapiens, UniProt P42684); conditions: protein ABL2
T5 construct: thioredoxin; made in house; host or cells: BL21(DE3)pLysS E. coli
T5 sequence (P42684 whole entry, the tested form may be a part): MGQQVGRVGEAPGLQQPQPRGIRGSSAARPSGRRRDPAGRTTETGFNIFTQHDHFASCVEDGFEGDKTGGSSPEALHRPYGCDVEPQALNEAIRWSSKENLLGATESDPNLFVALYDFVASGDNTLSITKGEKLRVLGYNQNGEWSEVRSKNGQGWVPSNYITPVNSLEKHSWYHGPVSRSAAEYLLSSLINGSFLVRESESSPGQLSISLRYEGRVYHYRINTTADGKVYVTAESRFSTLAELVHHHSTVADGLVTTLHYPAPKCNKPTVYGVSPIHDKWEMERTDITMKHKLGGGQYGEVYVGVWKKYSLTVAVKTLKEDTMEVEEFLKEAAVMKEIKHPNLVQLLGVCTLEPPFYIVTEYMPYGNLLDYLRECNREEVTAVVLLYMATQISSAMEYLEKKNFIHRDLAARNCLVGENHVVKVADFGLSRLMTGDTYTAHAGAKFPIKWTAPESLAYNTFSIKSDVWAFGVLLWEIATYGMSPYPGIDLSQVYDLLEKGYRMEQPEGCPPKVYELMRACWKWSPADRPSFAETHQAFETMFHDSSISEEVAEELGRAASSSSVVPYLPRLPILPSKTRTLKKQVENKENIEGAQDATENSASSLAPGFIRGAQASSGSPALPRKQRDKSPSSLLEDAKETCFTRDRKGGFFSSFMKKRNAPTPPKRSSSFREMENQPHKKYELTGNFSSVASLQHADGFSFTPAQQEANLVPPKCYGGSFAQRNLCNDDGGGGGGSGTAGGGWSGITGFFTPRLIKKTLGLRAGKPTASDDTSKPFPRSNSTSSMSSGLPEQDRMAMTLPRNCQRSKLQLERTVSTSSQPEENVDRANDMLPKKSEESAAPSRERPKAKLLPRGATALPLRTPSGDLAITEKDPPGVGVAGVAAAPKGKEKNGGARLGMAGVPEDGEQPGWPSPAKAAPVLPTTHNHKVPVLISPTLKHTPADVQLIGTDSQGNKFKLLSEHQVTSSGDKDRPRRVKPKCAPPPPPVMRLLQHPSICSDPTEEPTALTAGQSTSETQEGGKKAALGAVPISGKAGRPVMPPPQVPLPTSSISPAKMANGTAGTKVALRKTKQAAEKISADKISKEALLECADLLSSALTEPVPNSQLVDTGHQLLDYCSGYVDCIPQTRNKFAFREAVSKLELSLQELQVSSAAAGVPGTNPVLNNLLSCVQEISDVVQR
Summary of the method: as §1

[6] = PM assay replicate # 39336, array fabrication # 39329
[7] = PM assay replicate # 39337, array fabrication # 39329
[8] = PM assay replicate # 39307, array fabrication # 39286

**Q.** What does the source list for `CC(C)C[C@H](NC(=O)[C@@H]1CCCN1)C(=O)N[C@@H](CCC(N)=O)C(=O)N[C@@H](CCCNC(=N)N)C(=O)N[C@@H](Cc1ccc(OP(=O)(O)O)cc1)C(=O)N[C@@H](CO)C(=O)N[C@@H](CCC(=O)O)C(=O)N[C@@H](CC(=O)O)C(=O)N1CCC[C@H]1C(=O)N[C@H](C(=O)N[C@H](C(=O)N1CCC[C@H]1C(=O)N[C@@H](CC(=O)O)C(=O)O)C(C)C)[C@@H](C)O` [ErbB2 pY1112] (HELM PEPTIDE1{P.L.Q.R.[O=C([C@H](Cc1ccc(OP(=O)(O)O)cc1)N[*:1])[*:2]].S.E.D.P.T.V.P.D}$$$$V2.0)?
**A.** Kd ([1]; PM assay replicate # 39331): 1.26 µM; Kd ([1]; PM assay replicate # 39336): 3.06 µM

**Q.** Which results are given for `CC(C)C[C@H](NC(=O)[C@@H]1CCCN1C(=O)[C@H](C)NC(=O)[C@@H](NC(=O)[C@H](Cc1ccc(OP(=O)(O)O)cc1)NC(=O)CNC(=O)[C@H](CC(=O)O)NC(=O)[C@@H](NC(=O)[C@@H](N)CCC(=O)O)[C@@H](C)O)C(C)C)C(=O)N[C@H](C(=O)N[C@@H](CS)C(=O)N[C@@H](CO)C(=O)N[C@@H](CC(=O)O)C(=O)O)[C@@H](C)O` [ErbB2 pY1127]?
**A.** Kd [2, 6]: 0.30 µM; Kd [2, 7]: 0.53 µM; Kd [3, 6]: 4.36 µM; Kd [3, 7]: 0.25 µM; Kd ([1]; PM assay replicate # 39336): 0.98 µM; Kd ([1]; PM assay replicate # 39337): 0.82 µM; Kd [4, 6]: 0.80 µM; Kd [4, 7]: 2.58 µM

**Q.** `CCN(CC)c1ccc2c(-c3ccc(C(=O)N[C@@H](CC(N)=O)C(=O)NCC(=O)N4CCC[C@H]4C(=O)N4CCC[C@H]4C(=O)N[C@@H](CCCCN)C(=O)N[C@@H](C)C(=O)N[C@@H](CCC(=O)O)C(=O)N[C@@H](CC(=O)O)C(=O)N[C@@H](CCC(=O)O)C(=O)N[C@@H](Cc4ccc(OP(=O)(O)O)cc4)C(=O)N[C@H](C(=O)N[C@@H](CC(N)=O)C(=O)N[C@@H](CCC(=O)O)C(=O)N4CCC[C@H]4C(=O)N[C@@H](CC(C)C)C(=O)N[C@@H](Cc4ccc(O)cc4)C(=O)N[C@@H](CC(C)C)C(=O)N[C@@H](CC(=O)O)C(=O)O)C(C)C)cc3C(=O)[O-])c3ccc(=[N+](CC)CC)cc-3oc2c1` [ErbB4 1202 (18-mer)] (HELM PEPTIDE1{[CCN(CC)c1ccc2c(-c3ccc(C(=O)[*:2])cc3C(=O)[O-])c3ccc(=[N+](CC)CC)cc-3oc2c1].N.G.P.P.K.A.E.D.E.[O=C([C@H](Cc1ccc(OP(=O)(O)O)cc1)N[*:1])[*:2]].V.N.E.P.L.Y.L.D}$$$$V2.0) was tested. Which “Kd” value [5, 8] did it give?
**A.** 1.00 µM

**Q.** What about the “Kd” value [5, 7] of the same molecule?
**A.** 0.97 µM

**Q.** And the “Kd” value [4, 8]?
**A.** 0.72 µM

**Q.** Which results are given for `CC[C@H](C)[C@H](NC(=O)[C@H](CC(N)=O)NC(=O)[C@H](CC(N)=O)NC(=O)[C@H](CCCCN)NC(=O)[C@H](CC(C)C)NC(=O)[C@H](Cc1ccc(OP(=O)(O)O)cc1)NC(=O)[C@H](CCC(=O)O)NC(=O)[C@H](C)NC(=O)[C@H](CCCCN)NC(=O)CNC(=O)[C@H](CC(C)C)NC(=O)[C@@H](NC(=O)[C@H](CC(N)=O)NC(=O)[C@H](C)NC(=O)[C@@H](N)Cc1ccccc1)[C@@H](C)O)C(=O)N[C@@H](CC(C)C)C(=O)N[C@@H](CO)C(=O)N[C@@H](CC(=O)O)C(=O)O` [ErbB4 pY1221 (18-mer)] (HELM PEPTIDE1{F.A.N.T.L.G.K.A.E.[O=C([C@H](Cc1ccc(OP(=O)(O)O)cc1)N[*:1])[*:2]].L.K.N.N.I.L.S.D}$$$$V2.0)?
**A.** Kd [2, 8]: 0.25 µM; Kd [3, 8]: 0.07 µM; Kd [5, 8]: 0.28 µM; Kd ([5]; PM assay replicate # 39352, array fabrication # 39336): 0.91 µM
